How the values were obtained:
rat primary astrocytes = experiment: Cell viability (CCK-8) in NMO-IgG induced astrocyte injury model; type: cell-based; details: NMO-IgG 250 μg/mL, 24 h
[1] = test system: IL-6 secretion by astrocytes; experiment: IL-6 release caused by NMO-IgG in astrocytes (ELISA); type: cell-based, rat; details: NMO-IgG 250 μg/mL, 24 h; for IL-6 inhibition rate, Mean: 5 μM
Procedure: The compound was dissolved in DMSO to prepare a compound stock solution. The compound stock solution was then serially diluted in a gradient using DMSO to prepare a series of 1000× test compound solutions. These 1000× test compound solutions were further diluted at a ratio of 1:100 with cell culture medium to prepare a series of 10× test compound solutions. Finally, according to the experimental well plate loading design, a corresponding volume of 10× solution was added to each well, with two duplicate wells for each drug concentration. In the experiment, the test solution (i.e., 1× solution) had varying final concentrations of compound I, specifically 20, 2.222, 0.247, and 0.027 μM; the concentration of Meprednisone compound (i.e., 1× solution) was 30 μM; the concentration of BAY 11-7082 (i.e., 1× solution) was 5 μM; the final DMSO concentration in each well was 0.1%. DMSO without compound was added to blank control wells, with a final concentration of 0.1%.
1) Extraction and separation of primary astrocytes: A mixed glial cell culture medium was prepared from the cerebral cortex of 1-day-old newborn rats. After euthanizing the newborn rats, they were immersed in alcohol. Their skin was cut, the brains were removed, and the cerebral cortex was isolated. The tissues were then ground to remove the connective tissue, and the mixed glial cells were sieved through a 70 µm cell strainer. These cells were then seeded into a cell culture plate coated with poly-L-lysine. The culture medium was DMEM, containing 10% heat-inactivated fetal bovine serum, 100 U/mL penicillin, and […]. After about 12 days of in vitro culture, the cells reached confluence. Microglia, endothelial cells, and oligodendrocytes were removed from the mixed glial cells by vibratory shaking. […] 2) Culture of astrocytes: The isolated astrocytes were cultured in a 37° C., 5% CO2 incubator. The culture medium was changed every 3 to 4 days. The astrocytes could also be digested using trypsin (0.25%) and then frozen in liquid nitrogen for future use.
Human NMO-IgG was isolated from a sterile-filtered serum pool (AQP4-IgG-positive NMOSD) using a HiTrap Protein G-HP column (GE Healthcare). The serum samples were diluted at a ratio of 1:1 with binding buffer, and after packing the purification column with binding buffer, the serum sample was added. The column was subsequently washed with binding buffer again and the antibodies were eluted according to the instructions. Finally, the antibodies were concentrated on an Amicon Ultra-4 centrifugal filter (millipore) with a 10,000 MW cutoff. The concentrated immunoglobulin was filtered through a 0.22 µm filter. The protein concentration of the concentrate was determined using the BCA method and stored at −80° C. The total IgG extracted from the serum of NMOSD patients was NMO-IgG (containing AQP4-IgG), and the cells were stimulated at a protein concentration of 250 μg/mL during the experiment.
Astrocytes were cultured or revived until day 2 and then seeded into a 24-well plate at a density of 1.5×10^5 cells per well. The test compounds, including compound I, Meprednisone, and BAY11-7082, were pre-incubated with the cells for 30 minutes at the concentrations previously described. Subsequently, in each group, the cells continued to be stimulated with NMO-IgG at a final working concentration of 250 μg/mL for 24 hours to induce astrocyte damage. Normal human Control-IgG (CON-IgG) stimulation at a final working concentration of 250 μg/mL was used as a negative control.
After 24 hours of NMO-IgG stimulation of cells, the supernatant was collected. IL-6 levels were detected using an enzyme-linked immunosorbent assay (ELISA) following the instructions of the IL-6 ELISA kit (R&D Systems, USA, #RD6000B). The absorbance (OD values) of the samples in each group was measured, and the concentration of IL-6 in each experimental group was calculated through standard curve fitting. […]

[2] = test system: MOG35-55-induced experimental autoimmune encephalomyelitis (EAE) mouse model; experiment: MOG35-55-induced EAE mouse model, clinical scoring and incidence; type: in vivo, C57BL/6 mice; details: for reduction rate in AUC for clinical scoring: 14 days, vs vehicle control

## Cc1ccc(S(=O)(=O)/C=C/C#N)cc1 [BAY 11-7082, BAY11-7082, reference compound]
Rat primary astrocytes; 5 μM
  Cell viability percentage, Mean: 39.5%
[1]
  IL-6 inhibition rate, Mean: 104.2%
[1]; listed as BAY compound
  IL-6 inhibition rate, Mean: approximately 104.2%

## C[C@@H]1C[C@H]2[C@@H]3CCC4=CC(=O)C=C[C@]4(C)[C@@]3(F)[C@@H](O)C[C@]2(C)[C@@]1(O)C(=O)CO [Dexamethasone, reference compound]
[2]; 1 mg/kg QD oral
  reduction rate in AUC for clinical scoring: 65%
[2]; G3, 1 mg/kg PO QD, day 0
  incidence of EAE: 0%
[2]; G3, 1 mg/kg PO QD, day 2
  incidence of EAE: 0%
[2]; G3, 1 mg/kg PO QD, day 4
  incidence of EAE: 0%
[2]; G3, 1 mg/kg PO QD, day 7
  incidence of EAE: 0%
[2]; G3, 1 mg/kg PO QD, day 9
  incidence of EAE: 0%
[2]; G3, 1 mg/kg PO QD, day 11
  incidence of EAE: 0%
[2]; G3, 1 mg/kg PO QD, day 12
  incidence of EAE: 10%
[2]; G3, 1 mg/kg PO QD, day 13
  incidence of EAE: 20%
[2]; G3, 1 mg/kg PO QD, day 14
  incidence of EAE: 60%
[2]; G3, 1 mg/kg PO QD, day 15
  incidence of EAE: 60%
[2]; G3, 1 mg/kg PO QD, day 16
  incidence of EAE: 60%
[2]; G3, 1 mg/kg PO QD, day 17
  incidence of EAE: 50%
[2]; G3, 1 mg/kg PO QD, day 18
  incidence of EAE: 50%
[2]; G3, 1 mg/kg PO QD, day 19
  incidence of EAE: 50%
[2]; G3, 1 mg/kg PO QD, day 20
  incidence of EAE: 50%
[2]; G3, 1 mg/kg PO QD, day 21
  incidence of EAE: 50%
[2]; G3, 1 mg/kg PO QD, day 22
  incidence of EAE: 40%
[2]; G3, 1 mg/kg PO QD, day 23
  incidence of EAE: 30%
[2]; G3, 1 mg/kg PO QD, day 24
  incidence of EAE: 30%
[2]; G3, 1 mg/kg PO QD, day 25
  incidence of EAE: 30%
[2]; G3, 1 mg/kg PO QD, day 26
  incidence of EAE: 30%
[2]; G3, 1 mg/kg PO QD, day 27
  incidence of EAE: 30%
[2]; G3, 1 mg/kg QD oral, day 0
  EAE clinical scoring, Mean: 0.00
[2]; G3, 1 mg/kg QD oral, day 2
  EAE clinical scoring, Mean: 0.00
[2]; G3, 1 mg/kg QD oral, day 4
  EAE clinical scoring, Mean: 0.00
[2]; G3, 1 mg/kg QD oral, day 7
  EAE clinical scoring, Mean: 0.00
[2]; G3, 1 mg/kg QD oral, day 9
  EAE clinical scoring, Mean: 0.00
[2]; G3, 1 mg/kg QD oral, day 11
  EAE clinical scoring, Mean: 0.00
[2]; G3, 1 mg/kg QD oral, day 12
  EAE clinical scoring, Mean: 0.10
[2]; G3, 1 mg/kg QD oral, day 13
  EAE clinical scoring, Mean: 0.20
[2]; G3, 1 mg/kg QD oral, day 14
  EAE clinical scoring, Mean: 0.70
[2]; G3, 1 mg/kg QD oral, day 15
  EAE clinical scoring, Mean: 1.30
[2]; G3, 1 mg/kg QD oral, day 16
  EAE clinical scoring, Mean: 1.70
[2]; G3, 1 mg/kg QD oral, day 17
  EAE clinical scoring, Mean: 1.70
[2]; G3, 1 mg/kg QD oral, day 18
  EAE clinical scoring, Mean: 1.40
[2]; G3, 1 mg/kg QD oral, day 19
  EAE clinical scoring, Mean: 1.30
[2]; G3, 1 mg/kg QD oral, day 20
  EAE clinical scoring, Mean: 1.00
[2]; G3, 1 mg/kg QD oral, day 21
  EAE clinical scoring, Mean: 0.90
[2]; G3, 1 mg/kg QD oral, day 22
  EAE clinical scoring, Mean: 0.80
[2]; G3, 1 mg/kg QD oral, day 23
  EAE clinical scoring, Mean: 0.70
[2]; G3, 1 mg/kg QD oral, day 24
  EAE clinical scoring, Mean: 0.30
[2]; G3, 1 mg/kg QD oral, day 25
  EAE clinical scoring, Mean: 0.30
[2]; G3, 1 mg/kg QD oral, day 26
  EAE clinical scoring, Mean: 0.30
[2]; G3, 1 mg/kg QD oral, day 27
  EAE clinical scoring, Mean: 0.30

## CCCCCCCCc1ccc(CCC(N)(CO)CO)cc1 [Fingolimod, reference compound]
[2]; 0.5 mg/kg QD oral
  reduction rate in AUC for clinical scoring: 49%
[2]; G4, 0.5 mg/kg QD oral, day 0
  EAE clinical scoring, Mean: 0.00
  incidence of EAE: 0%
[2]; G4, 0.5 mg/kg QD oral, day 2
  EAE clinical scoring, Mean: 0.00
  incidence of EAE: 0%
[2]; G4, 0.5 mg/kg QD oral, day 4
  EAE clinical scoring, Mean: 0.00
  incidence of EAE: 0%
[2]; G4, 0.5 mg/kg QD oral, day 7
  EAE clinical scoring, Mean: 0.00
  incidence of EAE: 0%
[2]; G4, 0.5 mg/kg QD oral, day 9
  EAE clinical scoring, Mean: 0.00
  incidence of EAE: 0%
[2]; G4, 0.5 mg/kg QD oral, day 11
  EAE clinical scoring, Mean: 0.00
  incidence of EAE: 0%
[2]; G4, 0.5 mg/kg QD oral, day 12
  EAE clinical scoring, Mean: 0.00
  incidence of EAE: 0%
[2]; G4, 0.5 mg/kg QD oral, day 13
  EAE clinical scoring, Mean: 0.20
  incidence of EAE: 20%
[2]; G4, 0.5 mg/kg QD oral, day 14
  EAE clinical scoring, Mean: 0.70
  incidence of EAE: 60%
[2]; G4, 0.5 mg/kg QD oral, day 15
  EAE clinical scoring, Mean: 1.30
  incidence of EAE: 80%
[2]; G4, 0.5 mg/kg QD oral, day 16
  EAE clinical scoring, Mean: 1.70
  incidence of EAE: 80%
[2]; G4, 0.5 mg/kg QD oral, day 17
  EAE clinical scoring, Mean: 1.70
  incidence of EAE: 80%
[2]; G4, 0.5 mg/kg QD oral, day 18
  EAE clinical scoring, Mean: 1.40
  incidence of EAE: 70%
[2]; G4, 0.5 mg/kg QD oral, day 19
  EAE clinical scoring, Mean: 1.30
  incidence of EAE: 70%
[2]; G4, 0.5 mg/kg QD oral, day 20
  EAE clinical scoring, Mean: 1.00
  incidence of EAE: 60%
[2]; G4, 0.5 mg/kg QD oral, day 21
  EAE clinical scoring, Mean: 0.90
  incidence of EAE: 50%
[2]; G4, 0.5 mg/kg QD oral, day 22
  EAE clinical scoring, Mean: 0.80
  incidence of EAE: 50%
[2]; G4, 0.5 mg/kg QD oral, day 23
  EAE clinical scoring, Mean: 0.70
  incidence of EAE: 40%
[2]; G4, 0.5 mg/kg QD oral, day 24
  EAE clinical scoring, Mean: 0.50
  incidence of EAE: 20%
[2]; G4, 0.5 mg/kg QD oral, day 25
  EAE clinical scoring, Mean: 0.50
  incidence of EAE: 20%
[2]; G4, 0.5 mg/kg QD oral, day 26
  EAE clinical scoring, Mean: 0.50
  incidence of EAE: 20%
[2]; G4, 0.5 mg/kg QD oral, day 27
  EAE clinical scoring, Mean: 0.50
  incidence of EAE: 20%

## C[C@H]1C[C@H]2[C@@H]3CCC4=CC(=O)C=C[C@]4(C)[C@H]3C(=O)C[C@]2(C)[C@@]1(O)C(=O)CO [Meprednisone, reference compound]
Rat primary astrocytes; Rattus norvegicus, Astrocyte, 30 μM, read-out: Cell viability percentage, Mean
  viability at 30 µM: 81.7%
[1]; Rattus norvegicus, Astrocyte, 30 μM, read-out: IL-6 inhibition rate, Mean
  inhibition at 30 µM: ~74.8%
